According to PubChem BioAssay AID1259407 (Chemical Carcinogenesis Research Information System (CCRIS), 2018):
Activity calls are given as the source filed them. How the calls were made is not given here.

System: CCRIS mutagenicity, Ames/micronucleus/aberration tests
Test: CCRIS mutagenicity studies
[1] = Test System: AMES SALMONELLA TYPHIMURIUM, Strain/Indicator: TA98, Metabolic Activation: NONE, Method: PREINCUBATION
[2] = Test System: AMES SALMONELLA TYPHIMURIUM, Strain/Indicator: TA100, Metabolic Activation: NONE, Method: STANDARD PLATE

O=C1c2ccccc2C(=O)c2c(O)ccc(O)c21
mutagenic call (End Point: IN VITRO CHROMOSOMAL ABERRATIONS, Test System: CHL CELLS, Metabolic Activation: NONE): active; positive (structural changes); authors report equivocal results for ploidy chang | mutagenic call [1]: inactive; negative | mutagenic call (Test System: AMES SALMONELLA TYPHIMURIUM, Strain/Indicator: TA98, Metabolic Activation: RAT LIVER S-9, PHENOBARBITAL AND BETA-NAPHTHOFLAVONE, Method: PREINCUBATION): inactive; negative | mutagenic call (Test System: AMES SALMONELLA TYPHIMURIUM, Strain/Indicator: TA98, Metabolic Activation: RAT, LIVER, S-9, AROCLOR 1254, Method: STANDARD PLATE): inactive; negative | mutagenic call (Test System: AMES SALMONELLA TYPHIMURIUM, Strain/Indicator: TA98, Metabolic Activation: RAT, LIVER, S-9, PCB, Method: PREINCUBATION): inactive; negative | mutagenic call (Test System: AMES SALMONELLA TYPHIMURIUM, Strain/Indicator: TA100, Metabolic Activation: NONE, Method: PREINCUBATION): inactive; negative | mutagenic call [2]: inactive; negative | mutagenic call (Test System: AMES SALMONELLA TYPHIMURIUM, Strain/Indicator: TA100, Metabolic Activation: RAT LIVER S-9, PHENOBARBITAL AND BETA-NAPHTHOFLAVONE, Method: PREINCUBATION): inactive; negative | mutagenic call (Test System: AMES SALMONELLA TYPHIMURIUM, Strain/Indicator: TA100, Metabolic Activation: RAT, LIVER, S-9, AROCLOR 1254, Method: STANDARD PLATE): inactive; negative | mutagenic call (Test System: AMES SALMONELLA TYPHIMURIUM, Strain/Indicator: TA100, Metabolic Activation: RAT, LIVER, S-9, PCB, Method: PREINCUBATION): inactive; negative | mutagenic call (Test System: AMES SALMONELLA TYPHIMURIUM, Strain/Indicator: TA102, Metabolic Activation: NONE, Method: PREINCUBATION): active; positive | mutagenic call (Test System: AMES SALMONELLA TYPHIMURIUM, Strain/Indicator: TA102, Metabolic Activation: RAT, LIVER, S-9, Method: PREINCUBATION): active; positive | mutagenic call (Test System: AMES SALMONELLA TYPHIMURIUM, Strain/Indicator: TA1535, Metabolic Activation: NONE, Method: PREINCUBATION): inactive; negative | mutagenic call (Test System: AMES SALMONELLA TYPHIMURIUM, Strain/Indicator: TA1535, Metabolic Activation: NONE, Method: STANDARD PLATE): inactive; negative | mutagenic call (Test System: AMES SALMONELLA TYPHIMURIUM, Strain/Indicator: TA1535, Metabolic Activation: RAT LIVER S-9, PHENOBARBITAL AND BETA-NAPHTHOFLAVONE, Method: PREINCUBATION): inactive; negative | mutagenic call (Test System: AMES SALMONELLA TYPHIMURIUM, Strain/Indicator: TA1535, Metabolic Activation: RAT, LIVER, S-9, AROCLOR 1254, Method: STANDARD PLATE): inactive; negative | mutagenic call (Test System: AMES SALMONELLA TYPHIMURIUM, Strain/Indicator: TA1537, Metabolic Activation: NONE, Method: PREINCUBATION): active; positive | mutagenic call (Test System: AMES SALMONELLA TYPHIMURIUM, Strain/Indicator: TA1537, Metabolic Activation: NONE, Method: STANDARD PLATE): active; positive | mutagenic call (Test System: AMES SALMONELLA TYPHIMURIUM, Strain/Indicator: TA1537, Metabolic Activation: RAT LIVER S-9, PHENOBARBITAL AND BETA-NAPHTHOFLAVONE, Method: PREINCUBATION): active; positive | mutagenic call (Test System: AMES SALMONELLA TYPHIMURIUM, Strain/Indicator: TA1537, Metabolic Activation: RAT, LIVER, S-9, AROCLOR 1254, Method: STANDARD PLATE): active; positive | mutagenic call (Test System: AMES SALMONELLA TYPHIMURIUM, Strain/Indicator: TA1538, Metabolic Activation: NONE, Method: STANDARD PLATE): inactive; negative | mutagenic call (Test System: AMES SALMONELLA TYPHIMURIUM, Strain/Indicator: TA1538, Metabolic Activation: RAT, LIVER, S-9, AROCLOR 1254, Method: STANDARD PLATE): inactive; negative | mutagenic call (Test System: E.COLI, Strain/Indicator: WP2UVRA, Metabolic Activation: NONE, Method: PREINCUBATION): inactive; negative | mutagenic call (Test System: E.COLI, Strain/Indicator: WP2UVRA, Metabolic Activation: RAT LIVER S-9, PHENOBARBITAL AND BETA-NAPHTHOFLAVONE, Method: PREINCUBATION): inactive; negative

c1cnc2c3c(ccc2c1)CC[C@H]1O[C@@H]31
mutagenic call [2]: active; positive

O=S(=O)(O)Oc1c2ccccc2c2ccc3cccc4ccc1c2c43
mutagenic call [1]: inactive; negative | mutagenic call (Test System: AMES SALMONELLA TYPHIMURIUM, Strain/Indicator: TA98, Metabolic Activation: RAT, LUNG, S-9, Method: PREINCUBATION): inactive; negative

c1ccc2c(c1)-c1cc3c(cc1C1NC21)-c1ccccc1C1NC31 (stereo not given)
mutagenic call [2]: active; positive

CCN(CC)CCOc1ccc(C(=C(Cl)c2ccccc2)c2ccccc2)cc1
mutagenic call [1]: inactive; negative | mutagenic call (Test System: AMES SALMONELLA TYPHIMURIUM, Strain/Indicator: TA98, Metabolic Activation: RAT LIVER S-9, 3-METHYLCHOLANTHRENE, Method: PREINCUBATION): active; positive | mutagenic call (Test System: AMES SALMONELLA TYPHIMURIUM, Strain/Indicator: TA98, Metabolic Activation: RAT LIVER S-9, AROCLOR 1254, Method: PREINCUBATION): active; positive | mutagenic call (Test System: AMES SALMONELLA TYPHIMURIUM, Strain/Indicator: TA98, Metabolic Activation: RAT LIVER S-9, PHENOBARBITAL, Method: PREINCUBATION): active; positive | mutagenic call (Test System: AMES SALMONELLA TYPHIMURIUM, Strain/Indicator: TA98, Metabolic Activation: RAT LIVER S-9, STREPTOZOCINE, Method: PREINCUBATION): active; positive

C1=Cc2c(ccc3nc4ccc5ccccc5c4cc23)CC1
mutagenic call (Test System: AMES SALMONELLA TYPHIMURIUM, Strain/Indicator: TA98, Metabolic Activation: GUINEA PIG, LIVER, S-9, 3-METHYLCHOLANTHRENE, Method: STANDARD PLATE): active; positive | mutagenic call (Test System: AMES SALMONELLA TYPHIMURIUM, Strain/Indicator: TA100, Metabolic Activation: GUINEA PIG, LIVER, S-9, 3-METHYLCHOLANTHRENE, Method: STANDARD PLATE): active; positive
